From patent US7049342B2, “Substituted phenylpropionic acid derivatives” (Kyorin Pharmaceutical Co., Ltd., priority 2000, dated 2006) come the findings set out here.

One data set has as its target T1, human type PPARα (Homo sapiens, UniProt Q07869).
T1 construct: expressed in transfected cells; host or cells: CHO cells
T1 sequence (Q07869 239-466 limits assumed): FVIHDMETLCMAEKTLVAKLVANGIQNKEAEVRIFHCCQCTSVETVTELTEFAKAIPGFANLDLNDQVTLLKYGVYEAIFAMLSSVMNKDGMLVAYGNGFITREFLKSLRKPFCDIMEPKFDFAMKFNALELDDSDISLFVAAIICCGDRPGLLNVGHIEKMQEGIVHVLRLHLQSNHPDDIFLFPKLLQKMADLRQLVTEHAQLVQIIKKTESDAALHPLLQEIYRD
As to the kind of experiment: Test of transcriptional activation on peroxisome proliferator-activated receptor α. The format is cell-based. As to conditions: CHO cells cotransfected with yeast DNA-binding domain/human PPARα ligand-binding domain fusion receptor plasmid, reporter plasmid and Renilla luciferase internal standard; luciferase measured after 24 hours; read-out: Transcription-activating function EC50. The text has this:
Test of Transcriptional Activation on Peroxisome Proliferator-Activated Receptor α
To CHO cells cultured in a Dulbecco-modified Eagle's medium containing 10% delipid fetal calf serum (FCS/DMEM), receptor plasmid that expresses fused protein of DNA-binding domain being transcription factor of yeast with ligand-binding domain of human type PPARα (Biochemistry, 1993, 32, 5598), its reporter plasmid (STRATAGENE Corp.) and luciferase plasmid of Renilla (Promega Corp.) as internal standard were cotransfected with lipofectamine in the serum-free state. Thereafter, testing compound was added in the 10% SFCS/DMEM and both luciferase activities were measured after 24 hours, which were corrected with internal standard.

What is called melting point is the temperature, or range, at which the solid turns liquid. By EC50 is commonly meant the concentration at which the effect is half-maximal.

The molecule `CCC(Cc1ccc(OC)c(CC(=O)Nc2ccc(C(F)(F)F)cc2)c1)C(=O)O` (single isomer, unassigned; (-)) [Example 121 (−), (−)-2-ethyl-3-[4-methoxy-3-[[N-[4-(trifluoromethyl)phenyl]carbamoyl]methyl]-phenyl]propanoic acid] yielded a melting point of 121 to 123 °C. `CCCCC/C=C\C/C=C\C=C\[C@@H](O)C/C=C\CCCC(=O)O` [(8S) HETE, reference compound]: at human type PPARα, the 50% effective concentration (EC50) stood at 1300 nM. The molecule `COc1ccc(CC(OC)C(=O)O)cc1NC(=O)Cc1ccc(C(F)(F)F)cc1` (stereo not shown) [Example 39, 2-Methoxy-3-[4-methoxy-3-[2-[4-(trifluoromethyl)phenyl]acetylamino]phenyl]propanoic acid] showed a melting point of 124 to 125 °C.

Take `COc1ccc(CCC(=O)O)cc1NC(=O)Cc1ccc(-c2ccccc2)cc1` [Example 44]: the melting point came to 177 °C. Further, the concentration giving a half-maximal response (EC50) on human type PPARα turned out to be 130 nM. Turning to `CCC(Cc1ccc(OC)c(NC(=O)Cc2ccc(OCc3ccccc3)cc2)c1)C(=O)O` (stereo not shown) [Example 46], the EC50 at human type PPARα came to 50 nM. Regarding `COc1ccc(CC(OC)C(=O)O)cc1NC(=O)Cc1ccc(Oc2ccccc2)cc1` (stereo not shown) [Example 70], the EC50 at human type PPARα came to 160 nM.

The molecule `CCC(Cc1ccc(OC)c(CC(=O)Nc2ccc(C(F)(F)F)cc2)c1)C(=O)O` (stereo not shown) [Example 88, 2-Ethyl-3-[4-methoxy-3-[[N-[4-(trifluoromethyl)phenyl]carbamoyl]methyl]phenyl]propanoic acid] yielded a melting point of 136 to 137 °C. Further, the 50% effective concentration (EC50) at human type PPARα was found to be 15 nM. Turning to `CCC(Cc1ccc(OC)c(OCCc2ccc(C(F)(F)F)cc2)c1)C(=O)O` (stereo not shown) [Example 120, 2-Ethyl-3-[4-methoxy-3-[2-[4-(trifluoromethyl)phenyl]ethoxy]phenyl]propanoic acid], the melting point was in the range of 64 to 66 °C.
